Reference: patent publication US20200172529A1, “Chemical Compound, Pharmaceutical Composition Thereof, and Use and Application Thereof” (Beijing Hanmi Pharm. Co., Ltd., priority 2017, published 2020)

Experiments:
Format in all cases: biochemical
TYK2 kinase = molecular target: T1, TYK2 kinase (Homo sapiens, UniProt P29597); test: Inhibition assay of TYK2 kinase activity (ADP-Glo Kinase Assay)
T1 construct: purchased Life Technologies PR8440C
Experimental: Determination of inhibition of TYK2 kinase activity by the examples compounds disclosed herein
Inhibition assay of TYK2 kinase activity: the method of ADP-Glo™ Kinase Assay (Promega, V9102) was used to determine the inhibitory activity of the test compounds against TYK2 kinase.
TYK2 kinase (purchased from Life Technologies, article number: PR8440C) was diluted to the 2-fold final concentration (0.8 ng/mL) using reaction buffer (40 mM Tris-HCl, pH 7.5; 20 mM MgCl2; 0.1 mg/mL BSA; 1 mM DTT), and added to a 384-well plate at 5 μL/well. The test drugs were subjected to a 10-fold gradient dilution, from 10 μM, to obtain 6 concentrations, and added to experimental wells of the 384-well plate at 2.5 μL/well. 5 μL of water and 2.5 μL of buffer were added to negative control wells. 5 μL of TYK2 and 2.5 μL of water were added to positive control wells. After incubating for 10 minutes at room temperature, the substrate ATP and polyE4Y1 (Sigma, P0275) were added at 2.5 μL/well, mixed well, and then reacted at room temperature for 60 minutes. After the reaction was completed, the kinase activity was detected according to the instruction of the kit. First, the ADP-Glo reaction reagent was added at 10 μL/well, mixed well, and reacted at room temperature for 40 minutes. The kinase detection reagent was then added at 20 μL/well, mixed well, and then reacted at room temperature for 30 minutes. The detection was then performed and the IC50s of test drugs were calculated.

JAK1 kinase = JAK1 kinase (Homo sapiens, UniProt P23458); test: Inhibition assay of JAK1 kinase activity (ADP-Glo Kinase Assay)
Sequence of JAK1 kinase (P23458 whole entry): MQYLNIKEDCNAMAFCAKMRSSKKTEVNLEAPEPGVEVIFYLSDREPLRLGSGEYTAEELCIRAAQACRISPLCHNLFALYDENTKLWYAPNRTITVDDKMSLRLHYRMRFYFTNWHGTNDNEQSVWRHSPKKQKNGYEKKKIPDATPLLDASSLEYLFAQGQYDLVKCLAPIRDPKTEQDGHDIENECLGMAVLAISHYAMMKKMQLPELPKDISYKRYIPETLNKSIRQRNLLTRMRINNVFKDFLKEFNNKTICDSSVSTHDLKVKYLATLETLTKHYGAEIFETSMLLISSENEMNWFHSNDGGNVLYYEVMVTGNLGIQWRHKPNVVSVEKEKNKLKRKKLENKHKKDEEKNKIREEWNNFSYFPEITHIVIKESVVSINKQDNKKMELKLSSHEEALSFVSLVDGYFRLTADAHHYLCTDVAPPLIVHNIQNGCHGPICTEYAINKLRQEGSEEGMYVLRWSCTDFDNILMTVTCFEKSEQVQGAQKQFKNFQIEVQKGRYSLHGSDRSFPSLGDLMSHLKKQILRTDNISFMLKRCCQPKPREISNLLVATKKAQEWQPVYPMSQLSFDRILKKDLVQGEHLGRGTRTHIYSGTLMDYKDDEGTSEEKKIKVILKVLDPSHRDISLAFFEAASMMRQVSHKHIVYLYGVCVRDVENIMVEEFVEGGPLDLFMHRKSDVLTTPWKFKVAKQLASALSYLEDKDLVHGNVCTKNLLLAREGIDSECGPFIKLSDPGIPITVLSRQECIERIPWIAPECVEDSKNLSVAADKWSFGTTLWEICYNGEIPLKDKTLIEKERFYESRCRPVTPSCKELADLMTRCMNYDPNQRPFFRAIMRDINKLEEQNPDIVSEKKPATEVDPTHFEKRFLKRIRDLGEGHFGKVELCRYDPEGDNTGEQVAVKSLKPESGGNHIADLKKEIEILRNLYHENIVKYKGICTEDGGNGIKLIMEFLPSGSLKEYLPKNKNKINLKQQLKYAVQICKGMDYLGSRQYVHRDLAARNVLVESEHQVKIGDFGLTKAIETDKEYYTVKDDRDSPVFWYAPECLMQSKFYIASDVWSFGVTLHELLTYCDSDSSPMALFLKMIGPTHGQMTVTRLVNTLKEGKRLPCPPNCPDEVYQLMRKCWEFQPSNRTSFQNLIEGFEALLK
Excerpt: Inhibition assay of JAK1 kinase activity: the method in ADP-Glo™ Kinase Assay (Promega, V9102) was used to determine the inhibitory activity of the test compounds against JAK1 kinase.

JAK2 kinase = JAK2 kinase (Homo sapiens, UniProt O60674); test: Inhibition assay of JAK2 kinase activity (ADP-Glo Kinase Assay)
Sequence of JAK2 kinase (O60674 whole entry): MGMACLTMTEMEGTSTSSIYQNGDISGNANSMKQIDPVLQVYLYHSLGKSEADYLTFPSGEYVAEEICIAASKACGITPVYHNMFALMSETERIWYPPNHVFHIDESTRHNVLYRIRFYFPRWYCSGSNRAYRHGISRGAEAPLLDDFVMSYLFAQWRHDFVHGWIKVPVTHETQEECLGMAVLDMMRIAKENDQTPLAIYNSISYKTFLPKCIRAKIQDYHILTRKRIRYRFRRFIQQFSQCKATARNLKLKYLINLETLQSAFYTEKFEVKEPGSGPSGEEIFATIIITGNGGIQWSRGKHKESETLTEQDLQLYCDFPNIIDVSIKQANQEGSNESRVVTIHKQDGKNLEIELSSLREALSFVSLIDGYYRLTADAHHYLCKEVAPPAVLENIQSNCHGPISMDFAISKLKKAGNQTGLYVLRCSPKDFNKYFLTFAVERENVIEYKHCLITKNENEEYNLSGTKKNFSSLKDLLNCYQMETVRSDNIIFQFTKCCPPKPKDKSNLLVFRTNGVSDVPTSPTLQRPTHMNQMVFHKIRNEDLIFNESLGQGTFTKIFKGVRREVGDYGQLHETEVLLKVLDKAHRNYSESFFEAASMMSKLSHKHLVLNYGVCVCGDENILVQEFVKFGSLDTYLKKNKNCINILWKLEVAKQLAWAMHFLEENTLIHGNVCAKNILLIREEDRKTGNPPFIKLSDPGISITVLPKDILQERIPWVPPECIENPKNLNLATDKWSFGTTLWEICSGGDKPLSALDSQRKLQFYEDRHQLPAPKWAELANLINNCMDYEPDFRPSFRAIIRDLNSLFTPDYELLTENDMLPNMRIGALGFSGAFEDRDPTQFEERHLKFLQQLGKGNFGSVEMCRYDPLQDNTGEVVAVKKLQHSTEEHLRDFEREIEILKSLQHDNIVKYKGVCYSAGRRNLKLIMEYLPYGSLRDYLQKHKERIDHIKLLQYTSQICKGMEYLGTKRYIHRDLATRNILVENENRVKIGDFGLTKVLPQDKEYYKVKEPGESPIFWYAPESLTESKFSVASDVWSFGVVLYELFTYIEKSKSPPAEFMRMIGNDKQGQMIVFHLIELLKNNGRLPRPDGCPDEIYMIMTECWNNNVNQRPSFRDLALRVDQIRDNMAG
Excerpt: Inhibition assay of JAK2 kinase activity: the method in ADP-Glo™ Kinase Assay (Promega, V9102) was used to determine the inhibitory activity of the test compounds against JAK2 kinase.

JAK3 kinase = molecular target: T2, JAK3 kinase (Homo sapiens, UniProt P52333); test: Inhibition assay of JAK3 kinase activity (ADP-Glo Kinase Assay)
T2 sequence (P52333 1-1124): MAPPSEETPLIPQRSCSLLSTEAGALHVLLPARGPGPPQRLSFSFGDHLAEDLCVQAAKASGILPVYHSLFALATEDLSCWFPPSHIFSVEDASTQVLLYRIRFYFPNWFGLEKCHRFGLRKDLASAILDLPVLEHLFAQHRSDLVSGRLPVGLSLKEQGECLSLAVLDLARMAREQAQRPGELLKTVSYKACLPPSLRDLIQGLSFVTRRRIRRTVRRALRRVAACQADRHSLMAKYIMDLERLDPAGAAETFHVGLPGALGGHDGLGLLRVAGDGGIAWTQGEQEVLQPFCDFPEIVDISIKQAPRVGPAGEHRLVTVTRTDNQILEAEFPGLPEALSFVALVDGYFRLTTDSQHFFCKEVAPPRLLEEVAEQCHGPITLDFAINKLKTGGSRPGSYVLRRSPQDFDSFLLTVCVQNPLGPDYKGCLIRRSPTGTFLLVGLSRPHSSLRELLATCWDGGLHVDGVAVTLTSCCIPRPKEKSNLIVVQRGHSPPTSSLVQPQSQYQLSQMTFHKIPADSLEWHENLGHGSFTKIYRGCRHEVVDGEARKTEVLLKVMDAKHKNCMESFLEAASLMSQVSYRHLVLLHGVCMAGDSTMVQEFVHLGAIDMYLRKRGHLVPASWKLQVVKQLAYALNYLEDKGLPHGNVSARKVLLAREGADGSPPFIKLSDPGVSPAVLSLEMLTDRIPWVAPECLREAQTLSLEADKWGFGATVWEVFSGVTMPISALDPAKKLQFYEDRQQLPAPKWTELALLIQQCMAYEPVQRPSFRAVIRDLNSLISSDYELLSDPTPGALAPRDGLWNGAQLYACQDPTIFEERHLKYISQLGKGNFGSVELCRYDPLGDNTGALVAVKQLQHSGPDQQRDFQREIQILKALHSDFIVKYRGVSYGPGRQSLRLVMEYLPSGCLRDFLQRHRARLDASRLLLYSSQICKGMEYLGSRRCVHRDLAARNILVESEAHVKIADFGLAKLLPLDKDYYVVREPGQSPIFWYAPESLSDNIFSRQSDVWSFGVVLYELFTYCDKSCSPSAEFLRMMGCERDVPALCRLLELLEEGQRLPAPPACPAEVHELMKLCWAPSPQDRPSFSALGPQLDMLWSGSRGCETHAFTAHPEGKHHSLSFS
Excerpt: Inhibition assay of JAK3 kinase activity: the method in ADP-Glo™ Kinase Assay (Promega, V9102) was used to determine the inhibitory activity of the test compounds against JAK3 kinase.

T1 sequence (P29597 whole entry): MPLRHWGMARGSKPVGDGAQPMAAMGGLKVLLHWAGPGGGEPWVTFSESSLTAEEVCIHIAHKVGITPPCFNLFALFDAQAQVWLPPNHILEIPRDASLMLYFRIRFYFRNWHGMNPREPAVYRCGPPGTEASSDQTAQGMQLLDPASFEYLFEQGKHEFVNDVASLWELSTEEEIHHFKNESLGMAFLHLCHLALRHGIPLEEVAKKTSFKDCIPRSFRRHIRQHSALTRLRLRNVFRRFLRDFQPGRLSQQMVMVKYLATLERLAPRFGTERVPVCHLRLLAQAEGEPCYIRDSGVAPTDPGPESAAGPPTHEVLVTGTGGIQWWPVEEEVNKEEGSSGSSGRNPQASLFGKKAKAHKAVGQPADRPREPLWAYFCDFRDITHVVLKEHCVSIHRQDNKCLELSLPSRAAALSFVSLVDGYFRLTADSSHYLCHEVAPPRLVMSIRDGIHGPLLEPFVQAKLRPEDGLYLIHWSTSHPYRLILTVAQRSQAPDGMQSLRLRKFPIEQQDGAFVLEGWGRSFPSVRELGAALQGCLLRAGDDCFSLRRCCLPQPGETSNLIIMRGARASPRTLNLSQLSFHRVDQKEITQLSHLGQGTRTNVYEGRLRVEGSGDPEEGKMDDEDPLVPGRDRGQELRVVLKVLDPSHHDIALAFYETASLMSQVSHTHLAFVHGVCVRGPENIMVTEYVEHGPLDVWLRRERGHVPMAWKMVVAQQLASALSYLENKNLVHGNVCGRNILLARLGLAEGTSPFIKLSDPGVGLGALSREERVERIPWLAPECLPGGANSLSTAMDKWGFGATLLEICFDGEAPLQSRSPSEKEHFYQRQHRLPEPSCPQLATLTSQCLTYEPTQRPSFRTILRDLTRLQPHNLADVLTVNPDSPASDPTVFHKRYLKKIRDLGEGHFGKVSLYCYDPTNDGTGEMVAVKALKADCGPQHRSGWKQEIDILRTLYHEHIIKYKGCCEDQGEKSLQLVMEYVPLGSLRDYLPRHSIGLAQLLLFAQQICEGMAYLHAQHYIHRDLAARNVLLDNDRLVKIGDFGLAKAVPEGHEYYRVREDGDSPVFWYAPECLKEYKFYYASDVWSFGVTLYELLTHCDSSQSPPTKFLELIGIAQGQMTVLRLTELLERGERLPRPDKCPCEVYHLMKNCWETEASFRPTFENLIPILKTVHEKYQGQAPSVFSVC

SMILES	IC50 (TYK2 kinase)	IC50 (JAK1 kinase)	IC50 (JAK2 kinase)	IC50 (JAK3 kinase)
NC(=O)c1cnc(Nc2ccc3c(c2)NC[C@H](O)CO3)nc1NC1C2CC3CC1CC(O)(C3)C2 (stereo partly drawn) [Example 38, 4-((1-hydroxyadamantan-4-yl)amino)-2-(((S)-2,3,4,5-tetrahydro-3-hydroxybenzo[b][1,4]oxazepin-7-yl)amino)pyrimidin-5-carboxamide]	< 10 nM	< 10 nM	< 10 nM	< 10 nM
CC(C)(C)Nc1nc(Nc2ccc3c(c2)NC[C@H](O)CO3)ncc1C(N)=O [Example 53, 4-(tert-butylamino)-2-(((S)-2,3,4,5-tetrahydro-3-hydroxybenzo[b][1,4]oxazepin-7-yl)amino)pyrimidin-5-carboxamide]	< 10 nM	10 to 100 nM	10 to 100 nM	10 to 100 nM
NC(=O)c1cnc(Nc2ccc3c(c2)NC[C@H](O)CO3)nc1NCCCO [Example 51, 4-((3-hydroxypropyl)amino)-2-(((S)-2,3,4,5-tetrahydro-3-hydroxybenzo[b][1,4]oxazepin-7-yl)amino)pyrimidin-5-carboxamide]	< 10 nM	10 to 100 nM	10 to 100 nM	10 to 100 nM
NC(=O)c1cnc(Nc2ccc3c(c2)NC[C@H](OCC2CCCOC2)CO3)nc1NC1CC1 (stereo partly drawn) [Example 102, 4-(cyclopropylamino)-2-(((S)-2,3,4,5-tetrahydro-3-((tetrahydropyran-3-yl)methoxy)benzo[b][1,4]oxazepin-7-yl)amino)pyrimidin-5-carboxamide]	< 10 nM	< 10 nM	10 to 100 nM	10 to 100 nM
NC(=O)c1cnc(Nc2ccc3c(c2)NC[C@H](O)CO3)nc1NC1CCOC1 (stereo partly drawn) [Example 64, 4-(tetrahydrofuran-3-ylamino)-2-(((S)-2,3,4,5-tetrahydro-3-hydroxybenzo[b][1,4]oxazepin-7-yl)amino)pyrimidin-5-carboxamide]	< 10 nM	10 to 100 nM	10 to 100 nM	10 to 100 nM
CS(=O)(=O)CCNc1nc(Nc2ccc3c(c2)NC[C@H](O)CO3)ncc1C(N)=O [Example 67, 4-((2-methanesulfonylethyl)amino)-2-(((S)-2,3,4,5-tetrahydro-3-hydroxybenzo[b][1,4]oxazepin-7-yl)amino)pyrimidin-5-carboxamide]	< 10 nM	10 to 100 nM	10 to 100 nM	10 to 100 nM
CC(C)(C)OCCO[C@H]1CNc2cc(Nc3ncc(C(N)=O)c(NC4CC4)n3)ccc2OC1 [Example 103, 4-(cyclopropylamino)-2-(((S)-2,3,4,5-tetrahydro-3-(2-(tert-butoxy)ethoxy)benzo[b][1,4]oxazepin-7-yl)amino)pyrimidin-5-carboxamide]	< 10 nM	< 10 nM	10 to 100 nM	10 to 100 nM
NC(=O)c1cnc(Nc2ccc3c(c2)NC[C@H](O)CO3)nc1Nc1ccc2[nH]ccc2c1 [Example 34, 4-((1H-indol-5-yl)amino)-2-(((S)-2,3,4,5-tetrahydro-3-hydroxybenzo[b][1,4]oxazepin-7-yl)amino)pyrimidin-5-carboxamide]	< 10 nM	< 10 nM	< 10 nM	< 10 nM
CO[C@H]1CNc2cc(Nc3ncc(C(N)=O)c(NC4C5CC6CC4CC(OC)(C6)C5)n3)ccc2OC1 (stereo partly drawn) [Example 93, 4-((5-methoxyadamantan-2-yl)amino)-2-(((S)-2,3,4,5-tetrahydro-3-methoxybenzo[b][1,4]oxazepin-7-yl)amino)pyrimidin-5-carboxamide]	< 10 nM	< 10 nM	< 10 nM	< 10 nM
NC(=O)c1cnc(Nc2ccc3c(c2)NC[C@H](O)CO3)nc1NCC1CCCC1 [Example 73, 4-((cyclopentylmethyl)amino)-2-(((S)-2,3,4,5-tetrahydro-3-hydroxybenzo[b][1,4]oxazepin-7-yl)amino)pyrimidin-5-carboxamide]	< 10 nM	< 10 nM	< 10 nM	< 10 nM
NC(=O)c1cnc(Nc2ccc3c(c2)NC[C@H](O)CO3)nc1NCC1CCCCC1 [Example 50, 4-((cyclohexylmethyl)amino)-2-(((S)-2,3,4,5-tetrahydro-3-hydroxybenzo[b][1,4]oxazepin-7-yl)amino)pyrimidin-5-carboxamide]	< 10 nM	10 to 100 nM	< 10 nM	< 10 nM

The remaining lines, values ahead:

IC50 (TYK2 kinase)	IC50 (JAK1 kinase)	IC50 (JAK2 kinase)	IC50 (JAK3 kinase)	SMILES
< 10 nM	10 to 100 nM	10 to 100 nM	10 to 100 nM	NC(=O)c1cnc(Nc2ccc3c(c2)NC[C@H](O)CO3)nc1NC1CC(F)(F)C1 [Example 54, 4-((3,3-difluorocyclobutyl)amino)-2-(((S)-2,3,4,5-tetrahydro-3-hydroxybenzo[b][1,4]oxazepin-7-yl)amino)pyrimidin-5-carboxamide]
< 10 nM	< 10 nM	< 10 nM	< 10 nM	CCCCCNc1nc(Nc2ccc3c(c2)NC[C@H](O)CO3)ncc1C(N)=O [Example 75, 4-(pentylamino)-2-(((S)-2,3,4,5-tetrahydro-3-hydroxybenzo[b][1,4]oxazepin-7-yl)amino)pyrimidin-5-carboxamide]
< 10 nM	< 10 nM	10 to 100 nM	10 to 100 nM	CCCO[C@H]1CNc2cc(Nc3ncc(C(N)=O)c(NC4CC4)n3)ccc2OC1 [Example 82, 4-(cyclopropylamino)-2-(((S)-2,3,4,5-tetrahydro-3-propoxybenzo[b][1,4]oxazepin-7-yl)amino)pyrimidin-5-carboxamide]
< 10 nM	< 10 nM	< 10 nM	< 10 nM	COC12CC3CC(C1)C(Nc1nc(Nc4ccc5c(c4)NC[C@H](O)CO5)ncc1C(N)=O)C(C3)C2 (stereo partly drawn) [Example 46, 4-((5-methoxyadamantan-2-yl)amino)-2-(((S)-2,3,4,5-tetrahydro-3-hydroxybenzo[b][1,4]oxazepin-7-yl)amino)pyrimidin-5-carboxamide]
< 10 nM	< 10 nM	< 10 nM	< 10 nM	NC(=O)c1cnc(Nc2ccc3c(c2)NC[C@H](O)CO3)nc1NCC1CCC1 [Example 56, 4-((cyclobutylmethyl)amino)-2-(((S)-2,3,4,5-tetrahydro-3-hydroxybenzo[b][1,4]oxazepin-7-yl)amino)pyrimidin-5-carboxamide]
< 10 nM	< 10 nM	10 to 100 nM	< 10 nM	NC(=O)c1cnc(Nc2ccc3c(c2)NCC(O)CO3)nc1NC1CC1 (stereo not drawn) [Example 2, 4-(cyclopropylamino)-2-((3-hydroxy-2,3,4,5-tetrahydro-benzo[b][1,4]oxazepin-7-yl)amino)pyrimidin-5-carboxamide]
< 10 nM	< 10 nM	10 to 100 nM	10 to 100 nM	C#CCNc1nc(Nc2ccc3c(c2)NC[C@H](O)CO3)ncc1C(N)=O [Example 65, 4-(prop-2-yn-1-ylamino)-2-(((S)-2,3,4,5-tetrahydro-3-hydroxybenzo[b][1,4]oxazepin-7-yl)amino)pyrimidin-5-carboxamide]
